The source of these data is patent US12643871B2, “Aryl formamide compound containing chiral sulfur oxide or salt thereof, preparation method, herbicidal composition and use thereof” (Qingdao Kingagroot Chemical Compound Co., Ltd., priority 2019, dated 2026).

Holding throughout (format): in vivo
Data set [1] has as its system key weeds such as Digitaria sanguinalis, Leptochloa chinensis. Briefly: Comparison experiment (post-emergence, Tables 4-7), herbicidal activity on weeds not listed separately. The following applies: dose of 125, 60, 30, 15 g/ha. The procedure, abridged:
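Readout: fresh weight control rate, counted 15 days post-spray and averaged over three replicates. Pot-grown plants (seeds under 0.5-2 cm soil) were treated at the 2 leaf stage, two weeks after sowing, with 15–500 g/ha compound plus methyl oleate synergist at 1.5 liter/ha.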

The test system of the next data set is rice and other crops. Briefly: Comparison experiment (post-emergence, Tables 4-7), crop safety. The following applies: dose of 125, 60, 30, 15 g/ha. The text has this: The above growth control rates are fresh weight control rates.
Experiment on weeding effect in post-emergence stage: monocotyledonous and dicotyledonous weed seeds (Descurainia sophia, Capsella bursa-pastoris, Galium aparine, Stellaria media, Lithospermum arvense, Rorippa indica, Alopecurus aequalis, Beckmannia syzigachne, Sclerochloa dura, Phleum paniculatum, Bromus japonicus, Aegilops tauschii, Phalaris arundinacea, Amaranthus retroflexus, Chenopodiaceae, Commelina communis, Sonchus arvensis, convolvulus arvensis, Cirsium setosum, Solanum nigrum, Acalypha australis, Digitaria sanguinalis, Echinochloa crusgalli, Setaria viridis, Setaria glauca, Leptochloa chinensis, Monochoria vaginalis, Sagittaria trifolia, Scirpus juncoides, Cyperus rotundus, Cyperus iria, Cyperus difformis, Fimbristylis, Portulaca oleracea, Xanthium sibiricum, Pharbitis nil) and major crop seeds (wheat, corn, rice, soybean, cotton, oilseed rape, millet, sorghum, potato, sesame, ricinus) were placed in plastic pots filled with soil, then covered with 0.5-2 cm of soil, allowed to grow in a good greenhouse environment. After 2 weeks of sowing, the test plants were treated in the 2 leaf stage. The tested compounds of the present invention were respectively dissolved in acetone, then added with Tween 80 and 1.5 liter/ha of emulsifiable concentrate of methyl oleate as synergist, diluted with a certain amount of water to obtain a solution with a certain concentration, and sprayed with a spray tower onto the plants. After the application, the plants were cultured for 15 days in the greenhouse, and then the experimental results of the weeding were counted. The doses of the used compounds were 500, 250, 125, 60, 30, 15 g/ha, and the averages were obtained by repeating for three times.
If there is no clear marker, the post-seedling test conditions are the same as above, and the experimental results are shown in Tables 4-7.

In another data set the test system is Abutilon theophrasti. Briefly: Weeding effect in post-emergence stage. Conditions: 250 g/ha; 2 leaf stage; 15 days after application; fresh weight control rate. A digest of the protocol:
(§1)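 Activity graded 0 (<5%) to 5 (>85%) from fresh-weight control rate, averaged over three repeats, 15 days after a spray-tower application. Plants at 2-leaf stage (2 weeks post-sowing) received 15–500 g/ha of compound formulated in acetone, Tween 80 and methyl oleate synergist (1.5 L/ha).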

In a further data set the test system is Digitaria sanguinalis. Briefly: Weeding effect in post-emergence stage. Conditions: 250 g/ha; 2 leaf stage; 15 days after application; fresh weight control rate. The procedure, abridged:
as §1

A further data set deals with Setaria viridis. Briefly: Weeding effect in post-emergence stage. Conditions: 250 g/ha; 2 leaf stage; 15 days after application; fresh weight control rate. The procedure, abridged:
as §1

A further data set has as its system Amaranthus retroflexus. Nature of the data set: Weeding effect in post-emergence stage. Conditions: 250 g/ha; 2 leaf stage; 15 days after application; fresh weight control rate. The procedure, abridged: as §1
The subject of a further data set is Echinochloa crusgali. Briefly: Weeding effect in post-emergence stage. The following applies: 250 g/ha; 2 leaf stage; 15 days after application; fresh weight control rate. The procedure, abridged: as §1

For the compound `CCCCC[S@@+]([O-])c1c(C(F)(F)F)ccc(C(=O)Nc2nnc(C)o2)c1F` [Compound 8], in data set [1], the “activity to key weeds such as Digitaria sanguinalis, Leptochloa chinensis compared with the corresponding racemate or S configuration” value is “better activity”. Moreover, the “safety to rice and other crops compared with the corresponding racemate or S configuration” value with rice and other crops is “higher safety”. For the same compound, the “weeding effect in post-emergence stage, activity level (growth control rate), Abutilon theophrasti” value (from here on “weeding effect … Abutilon theophrasti”) in the data set with Abutilon theophrasti is given as 5 (Level 5: growth control rate is above 85%). The “weeding effect in post-emergence stage, activity level (growth control rate), Digitaria sanguinalis” value (“weeding effect … Digitaria sanguinalis” below) with Digitaria sanguinalis was 4 (Level 4: growth control rate is greater than or equal to 60% and less than 85%). For the same compound, the “weeding effect in post-emergence stage, activity level (growth control rate), Setaria viridis” value (“weeding effect … Setaria viridis” below) with Setaria viridis was 4 (Level 4: growth control rate is greater than or equal to 60% and less than 85%). For the same compound, the “weeding effect in post-emergence stage, activity level (growth control rate), Amaranthus retroflexus” value (from here on “weeding effect … Amaranthus retroflexus”) with Amaranthus retroflexus is listed as 5 (Level 5: growth control rate is above 85%). The “weeding effect in post-emergence stage, activity level (growth control rate), Echinochloa crusgali” value (from here on “weeding effect … Echinochloa crusgali”) in the data set on Echinochloa crusgali was 5 (Level 5: growth control rate is above 85%).

Consider `Cc1nnc(NC(=O)c2ccc(C(F)(F)F)c([S@+]([O-])CCC3CC3)c2F)o1` [Compound 17], for which the “activity to key weeds such as Digitaria sanguinalis, Leptochloa chinensis compared with the corresponding racemate or S configuration” value in data set [1] was “better activity”. Further, the “safety to rice and other crops compared with the corresponding racemate or S configuration” value in the data set on rice and other crops is given as “higher safety”. Also, in the data set on Abutilon theophrasti, the “weeding effect … Abutilon theophrasti” value is 5 (Level 5: growth control rate is above 85%). For the same compound, the “weeding effect … Digitaria sanguinalis” value in the data set with Digitaria sanguinalis is reported as 5 (Level 5: growth control rate is above 85%). Besides, the “weeding effect … Setaria viridis” value in the data set with Setaria viridis was 5 (Level 5: growth control rate is above 85%). For the same compound, in the data set with Amaranthus retroflexus, the “weeding effect … Amaranthus retroflexus” value is on record as 5 (Level 5: growth control rate is above 85%). In addition, in the data set with Echinochloa crusgali, the “weeding effect … Echinochloa crusgali” value is reported as 5 (Level 5: growth control rate is above 85%).

With `C=CCC[S@@+]([O-])c1c(C(F)(F)F)ccc(C(=O)Nc2nnc(C)o2)c1F` [Compound 20], in data set [1], the “activity to key weeds such as Digitaria sanguinalis, Leptochloa chinensis compared with the corresponding racemate or S configuration” value was “better activity”. Further, the “safety to rice and other crops compared with the corresponding racemate or S configuration” value in the data set with rice and other crops is recorded as “higher safety”. For the same compound, the “weeding effect … Abutilon theophrasti” value in the data set on Abutilon theophrasti was 5 (Level 5: growth control rate is above 85%). For the same compound, the “weeding effect … Digitaria sanguinalis” value with Digitaria sanguinalis is recorded as 5 (Level 5: growth control rate is above 85%). In addition, the “weeding effect … Setaria viridis” value with Setaria viridis is recorded as 5 (Level 5: growth control rate is above 85%). Besides, the “weeding effect … Amaranthus retroflexus” value in the data set on Amaranthus retroflexus is given as 5 (Level 5: growth control rate is above 85%). Further, the “weeding effect … Echinochloa crusgali” value in the data set on Echinochloa crusgali is reported as 5 (Level 5: growth control rate is above 85%).

Turning to `Cc1nnc(NC(=O)c2ccc(C(F)(F)F)c([S@+]([O-])CC=C(Cl)Cl)c2F)o1` [Compound 40], the “activity to key weeds such as Digitaria sanguinalis, Leptochloa chinensis compared with the corresponding racemate or S configuration” value in data set [1] is “better activity”. Also, in the data set on rice and other crops, the “safety to rice and other crops compared with the corresponding racemate or S configuration” value was “higher safety”. In the data set with Abutilon theophrasti, the “weeding effect … Abutilon theophrasti” value is given as 5 (Level 5: growth control rate is above 85%). For the same compound, the “weeding effect … Digitaria sanguinalis” value in the data set on Digitaria sanguinalis was 5 (Level 5: growth control rate is above 85%). Moreover, the “weeding effect … Setaria viridis” value in the data set on Setaria viridis is 5 (Level 5: growth control rate is above 85%). Besides, the “weeding effect … Amaranthus retroflexus” value with Amaranthus retroflexus is 5 (Level 5: growth control rate is above 85%). Moreover, the “weeding effect … Echinochloa crusgali” value with Echinochloa crusgali is listed as 5 (Level 5: growth control rate is above 85%).

Turning to `Cc1nnc(NC(=O)c2ccc(C(F)(F)F)c([S@+]([O-])CCC#N)c2F)o1` [Compound 52], the “activity to key weeds such as Digitaria sanguinalis, Leptochloa chinensis compared with the corresponding racemate or S configuration” value in data set [1] is listed as “better activity”. Also, the “safety to rice and other crops compared with the corresponding racemate or S configuration” value with rice and other crops is given as “higher safety”. In addition, the “weeding effect … Abutilon theophrasti” value with Abutilon theophrasti was 5 (Level 5: growth control rate is above 85%). Also, in the data set with Digitaria sanguinalis, the “weeding effect … Digitaria sanguinalis” value is given as 5 (Level 5: growth control rate is above 85%). In addition, the “weeding effect … Setaria viridis” value in the data set on Setaria viridis is recorded as 5 (Level 5: growth control rate is above 85%). Further, in the data set on Amaranthus retroflexus, the “weeding effect … Amaranthus retroflexus” value is recorded as 5 (Level 5: growth control rate is above 85%). For the same compound, the “weeding effect … Echinochloa crusgali” value in the data set on Echinochloa crusgali is 5 (Level 5: growth control rate is above 85%).

On to `Cc1nnc(NC(=O)c2ccc(C(F)(F)F)c([S@+]([O-])CCO)c2F)o1` [Compound 54], for which, in data set [1], the “activity to key weeds such as Digitaria sanguinalis, Leptochloa chinensis compared with the corresponding racemate or S configuration” value is recorded as “better activity”. Moreover, the “safety to rice and other crops compared with the corresponding racemate or S configuration” value in the data set with rice and other crops was “higher safety”. Besides, in the data set on Abutilon theophrasti, the “weeding effect … Abutilon theophrasti” value is given as 5 (Level 5: growth control rate is above 85%). In the data set on Digitaria sanguinalis, the “weeding effect … Digitaria sanguinalis” value was 5 (Level 5: growth control rate is above 85%). Also, the “weeding effect … Setaria viridis” value in the data set with Setaria viridis was 5 (Level 5: growth control rate is above 85%). The “weeding effect … Amaranthus retroflexus” value with Amaranthus retroflexus is reported as 5 (Level 5: growth control rate is above 85%). Moreover, the “weeding effect … Echinochloa crusgali” value with Echinochloa crusgali was 5 (Level 5: growth control rate is above 85%).

Regarding `CNCC[S@@+]([O-])c1c(C(F)(F)F)ccc(C(=O)Nc2nnc(C)o2)c1F` [Compound 67], in data set [1], the “activity to key weeds such as Digitaria sanguinalis, Leptochloa chinensis compared with the corresponding racemate or S configuration” value was “better activity”. Besides, the “safety to rice and other crops compared with the corresponding racemate or S configuration” value in the data set on rice and other crops is given as “higher safety”. In the data set on Abutilon theophrasti, the “weeding effect … Abutilon theophrasti” value is 5 (Level 5: growth control rate is above 85%). Also, the “weeding effect … Digitaria sanguinalis” value in the data set on Digitaria sanguinalis is 5 (Level 5: growth control rate is above 85%). The “weeding effect … Setaria viridis” value with Setaria viridis is 5 (Level 5: growth control rate is above 85%). In addition, in the data set with Amaranthus retroflexus, the “weeding effect … Amaranthus retroflexus” value was 5 (Level 5: growth control rate is above 85%). Further, the “weeding effect … Echinochloa crusgali” value in the data set on Echinochloa crusgali is given as 5 (Level 5: growth control rate is above 85%).

As to `COC[S+]([O-])c1c(C(F)(F)F)ccc(C(=O)Nc2nnc(C)o2)c1F` (stereo not drawn) [Compound 69], in data set [1], the “activity to key weeds such as Digitaria sanguinalis, Leptochloa chinensis compared with the corresponding racemate or S configuration” value is “better activity”. In addition, the “safety to rice and other crops compared with the corresponding racemate or S configuration” value with rice and other crops was “higher safety”. In addition, in the data set with Abutilon theophrasti, the “weeding effect … Abutilon theophrasti” value is 5 (Level 5: growth control rate is above 85%). Besides, the “weeding effect … Digitaria sanguinalis” value in the data set with Digitaria sanguinalis is reported as 5 (Level 5: growth control rate is above 85%). In addition, the “weeding effect … Setaria viridis” value with Setaria viridis was 5 (Level 5: growth control rate is above 85%). Further, in the data set with Amaranthus retroflexus, the “weeding effect … Amaranthus retroflexus” value was 5 (Level 5: growth control rate is above 85%). The “weeding effect … Echinochloa crusgali” value in the data set with Echinochloa crusgali is 5 (Level 5: growth control rate is above 85%).

Consider `CC(C)=NOCC[S@@+]([O-])c1c(C(F)(F)F)ccc(C(=O)Nc2nnc(C)o2)c1F` [Compound 166], for which the “activity to key weeds such as Digitaria sanguinalis, Leptochloa chinensis compared with the corresponding racemate or S configuration” value in data set [1] was “better activity”. In addition, the “safety to rice and other crops compared with the corresponding racemate or S configuration” value in the data set with rice and other crops is listed as “higher safety”. For the same compound, in the data set on Abutilon theophrasti, the “weeding effect … Abutilon theophrasti” value is 5 (Level 5: growth control rate is above 85%). In addition, the “weeding effect … Digitaria sanguinalis” value in the data set with Digitaria sanguinalis is 5 (Level 5: growth control rate is above 85%). Besides, the “weeding effect … Setaria viridis” value with Setaria viridis was 5 (Level 5: growth control rate is above 85%). Also, the “weeding effect … Amaranthus retroflexus” value in the data set on Amaranthus retroflexus is recorded as 5 (Level 5: growth control rate is above 85%). In addition, in the data set with Echinochloa crusgali, the “weeding effect … Echinochloa crusgali” value was 5 (Level 5: growth control rate is above 85%).
